Legend:
topoisomerase I = biological target: T1, topoisomerase I (Homo sapiens, UniProt P11387); settings: reference: Ogitani Y. et al., Clinical Cancer Research 2016; cited from earlier work
T1 sequence (P11387 1-765): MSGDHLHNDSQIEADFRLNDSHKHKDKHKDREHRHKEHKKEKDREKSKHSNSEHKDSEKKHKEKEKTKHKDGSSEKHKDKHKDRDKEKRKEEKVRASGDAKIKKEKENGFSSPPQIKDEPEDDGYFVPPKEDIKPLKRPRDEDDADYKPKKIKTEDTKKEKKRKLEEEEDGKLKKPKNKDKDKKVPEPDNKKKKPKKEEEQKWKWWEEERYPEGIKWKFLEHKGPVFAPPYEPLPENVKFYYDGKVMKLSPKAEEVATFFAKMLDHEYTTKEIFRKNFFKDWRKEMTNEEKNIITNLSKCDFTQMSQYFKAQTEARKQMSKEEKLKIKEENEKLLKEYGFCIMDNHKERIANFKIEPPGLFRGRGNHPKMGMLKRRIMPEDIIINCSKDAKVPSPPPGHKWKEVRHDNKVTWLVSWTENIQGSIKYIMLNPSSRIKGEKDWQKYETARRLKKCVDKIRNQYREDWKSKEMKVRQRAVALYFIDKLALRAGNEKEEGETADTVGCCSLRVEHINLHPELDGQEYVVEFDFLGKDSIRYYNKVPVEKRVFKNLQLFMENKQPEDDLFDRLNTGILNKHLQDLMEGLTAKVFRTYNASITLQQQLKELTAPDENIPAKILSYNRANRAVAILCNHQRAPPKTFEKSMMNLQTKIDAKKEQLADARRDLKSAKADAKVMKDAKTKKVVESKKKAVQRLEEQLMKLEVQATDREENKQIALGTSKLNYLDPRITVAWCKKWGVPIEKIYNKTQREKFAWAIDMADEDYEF

NCI-H358 cells = experiment: Antitumor test (1): NCI-H358 cells subcutaneously transplanted into nude mice; settings: for notable findings such as weight reduction: NCI-H358 xenograft nude mice, HER3-ADC (1) 3 mg/kg iv and/or RASG12C inhibitor 10 mg/kg orally, 3 weeks
Procedure: Mouse: Female BALB/c nude mice of 5 to 6 week-old (Charles River Laboratories Japan, Inc.) were used in an experiment.
Measurement and calculation formula: In all studies, the long diameter and the short diameter of a tumor were measured with an electronic digital caliper (CD-15CX, Mitutoyo Corporation) twice a week to calculate the tumor volume (mm^3). The calculation formula was as follows: […]
HER3-ADC (1) was diluted with ABS buffer (10 mM acetate buffer (pH 5.5), 5% sorbitol), and the resultant liquid was administered in an amount of 10 mL/kg to the tail vein.
Sotorasib was dissolved in 2% hydroxypropyl methylcellulose and 1% Tween 80, and the resultant liquid was orally administered in an amount of 10 mL/kg. […] NCI-H358 cells, that is, human lung cancer line purchased from ATCC (American Type Culture Collection) were suspended in 50% Matrigel matrix (Invitrogen), and 3×10^6 cells thus obtained were subcutaneously transplanted into a right side portion of the body of each of the female nude mice, and the resultant mice were randomly grouped 13 days after the transplantation (Day 0). HER3-ADC (1) was administered to the tail vein at a dose of 3 mg/kg on Day 0, Day 7, and Day 14. The RASG12C inhibitors were administered at a dose of 10 mg/kg for 3 weeks once a day and five times a week. Groups each given one of these agents, a group given both, and a solvent administration group as a control group were established.

Row | Compound | topoisomerase I inhibitory effect (topoisomerase I) | notable findings such as weight reduction (NCI-H358 cells) | tumor growth inhibition (TGI), single administration of RASG12C inhibitor (NCI-H358 cells; NCI-H358 xenograft, female nude mice, 10 mg/kg orally once a day, five times a week for 3 weeks, final day of the test) [%] | tumor growth inhibition (TGI), single administration of HER3-ADC (1) (NCI-H358 cells; NCI-H358 xenograft, female nude mice, 3 mg/kg tail vein on Day 0, Day 7 and Day 14, final day of the test) [%]
1 | CC[C@@]1(O)C(=O)OCc2c1cc1n(c2=O)Cc2c-1nc1cc(F)c(C)c3c1c2[C@@H](NC(=O)CO)CC3 | confirmed to have topoisomerase I inhibitory effect | – | – | –
2 | C=CC(=O)N1CCN(c2nc(=O)n(-c3c(C)ccnc3C(C)C)c3nc(-c4c(O)cccc4F)c(F)cc23)[C@@H](C)C1 [sotorasib] | – | anal prolapse | 39 | –
3 | HER3-ADC (1): anti-HER3 antibody (heavy chain SEQ ID NO: 1, light chain SEQ ID NO: 2) conjugated to exatecan-derivative drug-linker via thioether bond; average drug-to-antibody ratio 7.6 | – | No notable findings such as weight reduction | – | 68
